Experimental data as given in patent publication US6737383B1, “Herbicidal oxadiazolidines” (priority 1999, dated 2004).

Assays:
[1] = test system: bedstraw; assay: Test B pre/postemergence bedstraw; format: in vivo, Galium aparine
How it was run: (§1)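 Response is a visual 0-to-10 score relative to untreated plants, where 0 means no effect and 10 means complete control, taken twelve to sixteen days after application. Treatments went onto soil at planting and onto foliage of 1- to 4-leaf plants, using a surfactant-containing non-phytotoxic solvent.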

[2] = test system: blackgrass; assay: Test B pre/postemergence blackgrass; format: in vivo, Alopecurus myosuroides
How it was run: as §1

[3] = test system: surinam grass; assay: Test B pre/postemergence surinam grass; format: in vivo, Brachiaria decumbens
How it was run: as §1

[4] = test system: cocklebur; assay: Test B pre/postemergence cocklebur; format: in vivo, Xanthium strumarium
How it was run: as §1

[5] = test system: corn; assay: Test B pre/postemergence corn; format: in vivo, Zea mays
How it was run: as §1

[6] = test system: crabgrass; assay: Test B pre/postemergence crabgrass; format: in vivo, Digitaria sanguinalis
How it was run: as §1

[7] = test system: giant foxtail; assay: Test B pre/postemergence giant foxtail; format: in vivo, Setaria faberii
How it was run: as §1

[8] = test system: morningglory; assay: Test B pre/postemergence morningglory; format: in vivo, Ipomoea hederacea
How it was run: as §1

[9] = test system: pigweed; assay: Test B pre/postemergence pigweed; format: in vivo, Amaranthus retroflexus
How it was run: as §1

[10] = test system: rape; assay: Test B pre/postemergence rape; format: in vivo, Brassica napus
How it was run: as §1

[11] = test system: soybean; assay: Test B pre/postemergence soybean; format: in vivo, Glycine max
How it was run: as §1

[12] = test system: sugar beet; assay: Test B pre/postemergence sugar beet; format: in vivo, Beta vulgaris
How it was run: as §1

[13] = test system: velvetleaf; assay: Test B pre/postemergence velvetleaf; format: in vivo, Abutilon theophrasti
How it was run: as §1

[14] = test system: wheat; assay: Test B pre/postemergence wheat; format: in vivo, Triticum aestivum
How it was run: as §1

[15] = test system: wild oat; assay: Test B pre/postemergence wild oat; format: in vivo, Avena fatua
How it was run: as §1

[16] = test system: purple nutsedge; assay: Test B pre/postemergence purple nutsedge; format: in vivo, Cyperus rotundus
How it was run: as §1

[17] = test system: rice; assay: Test B flood test rice; format: in vivo, Oryza sativa
How it was run: (§2)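 Plants were grown to the 2-leaf stage before treatment with test chemical, then held in a greenhouse for twelve to sixteen days. Injury was visually rated against untreated controls on a 0–10 scale, where 0 is no effect and 10 is complete control.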

[18] = test system: smallflower flatsedge; assay: Test B flood test smallflower flatsedge; format: in vivo, Cyperus difformis
How it was run: as §2

[19] = test system: duck salad; assay: Test B flood test duck salad; format: in vivo, Heteranthera limosa
How it was run: as §2

[20] = test system: bamyardgrass; assay: Test B flood test barnyardgrass; format: in vivo, Echinochloa crus-galli
How it was run: as §2

[21] = Preemergence, Rate 31 g/ha, visual rating, scale 0 to 10 (0 no effect, 10 complete control)
[22] = Preemergence, Rate 62 g/ha, scale of 0 to 10 where 0 is no effect and 10 is complete control
[23] = Preemergence, Rate 250 g/ha, scale of 0 to 10 where 0 is no effect and 10 is complete control
[24] = Rate 31 g/ha, Postemergence, scale 0 to 10
[25] = Rate 62 g/ha, Postemergence, scale of 0 to 10 where 0 is no effect and 10 is complete control
[26] = Rate 125 g/ha, Postemergence, scale 0 to 10
[27] = Rate 125 g/ha, Preemergence, scale of 0 to 10 where 0 is no effect and 10 is complete control
[28] = Rate 62 g/ha, headed Pre-emergence (flood test species), scale 0 to 10 (0 no effect, 10 complete control)
[29] = Rate 250 g/ha, Pre-emergence, flood-test species, scale 0 to 10, 0 is no effect, 10 is complete control

CC(C)N(C(=O)n1oc(=O)n(CC#C[Si](C)(C)C)c1=O)c1ccc(F)cc1 [Compound 213]
Bedstraw plant response rating [1, 21]: 0 | Bedstraw plant response rating [1, 22]: 0 | Bedstraw plant response rating [1, 23]: 0 | Bedstraw plant response rating [1, 24]: 0 | Bedstraw plant response rating [1, 25]: 0 | Bedstraw plant response rating [1, 26]: 3 | Bedstraw plant response rating [1, 27]: 0 | Plant response rating (0 to 10; 0 is no effect, 10 is complete control), Bedstraw ([1]; Rate 250 g/ha, Postemergence): 3 | Blackgrass plant response rating [2, 21]: 0 | Blackgrass plant response rating [2, 22]: 0 | Blackgrass plant response rating [2, 23]: 0 | Blackgrass plant response rating [2, 24]: 0 | Blackgrass plant response rating [2, 25]: 0 | Blackgrass plant response rating [2, 26]: 0 | Blackgrass plant response rating [2, 27]: 0 | Plant response rating (0 to 10; 0 is no effect, 10 is complete control), Blackgrass ([2]; Rate 250 g/ha, Postemergence): 2 | B. signalgrass plant response rating [3, 21]: 0 | B. signalgrass plant response rating [3, 22]: 0 | B. signalgrass plant response rating ([3]; Preemergence, Rate 250 g/ha, scale 0 to 10, 0 is no effect, 10 is complete control): 0 | B. signalgrass plant response rating [3, 24]: 0 | B. signalgrass plant response rating [3, 25]: 0 | B. signalgrass plant response rating ([3]; Rate 125 g/ha, Postemergence, scale 0 (no effect) to 10 (complete control)): 0 | B. signalgrass plant response rating [3, 27]: 0 | Plant response rating (0 to 10; 0 is no effect, 10 is complete control), B. signalgrass ([3]; Rate 250 g/ha, Postemergence): 2 | Cocklebur plant response rating [4, 22]: 0 | Cocklebur plant response rating [4, 24]: 0 | Cocklebur plant response rating [4, 25]: 0 | Cocklebur plant response rating [4, 26]: 0 | Cocklebur plant response rating [4, 27]: 0 | Plant response rating (0 to 10; 0 is no effect, 10 is complete control), Cocklebur ([4]; Rate 250 g/ha, Postemergence): 0 | Corn plant response rating [5, 21]: 0 | Corn plant response rating [5, 22]: 0 | Corn plant response rating [5, 23]: 0 | Corn plant response rating [5, 24]: 0 | Corn plant response rating [5, 25]: 0 | Corn plant response rating [5, 26]: 0 | Corn plant response rating [5, 27]: 0 | Plant response rating (0 to 10; 0 is no effect, 10 is complete control), Corn ([5]; Rate 250 g/ha, Postemergence): 0 | Crabgrass plant response rating [6, 21]: 0 | Crabgrass plant response rating [6, 22]: 0 | Crabgrass plant response rating [6, 23]: 3 | Crabgrass plant response rating [6, 24]: 0 | Crabgrass plant response rating [6, 25]: 0 | Crabgrass plant response rating [6, 26]: 0 | Crabgrass plant response rating [6, 27]: 0 | Plant response rating (0 to 10; 0 is no effect, 10 is complete control), Crabgrass ([6]; Rate 250 g/ha, Postemergence): 2 | Giant foxtail plant response rating [7, 21]: 0 | Giant foxtail plant response rating [7, 22]: 0 | Giant foxtail plant response rating [7, 23]: 4 | Giant foxtail plant response rating [7, 24]: 0 | Giant foxtail plant response rating [7, 25]: 0 | Giant foxtail plant response rating [7, 26]: 0 | Giant foxtail plant response rating [7, 27]: 2 | Plant response rating (0 to 10; 0 is no effect, 10 is complete control), Giant foxtail ([7]; Rate 250 g/ha, Postemergence): 2 | Morningglory plant response rating [8, 21]: 0 | Morningglory plant response rating [8, 22]: 0 | Morningglory plant response rating [8, 23]: 3 | Morningglory plant response rating [8, 24]: 5 | Morningglory plant response rating [8, 25]: 6 | Morningglory plant response rating [8, 26]: 6 | Morningglory plant response rating [8, 27]: 0 | Plant response rating (0 to 10; 0 is no effect, 10 is complete control), Morningglory ([8]; Rate 250 g/ha, Postemergence): 7 | Redroot pigweed plant response rating [9, 21]: 0 | Redroot pigweed plant response rating [9, 22]: 0 | Redroot pigweed plant response rating [9, 23]: 5 | Redroot pigweed plant response rating [9, 24]: 0 | Redroot pigweed plant response rating [9, 25]: 5 | Redroot pigweed plant response rating [9, 26]: 7 | Redroot pigweed plant response rating [9, 27]: 4 | Plant response rating (0 to 10; 0 is no effect, 10 is complete control), Redroot pigweed ([9]; Rate 250 g/ha, Postemergence): 7 | Rape plant response rating [10, 21]: 0 | Rape plant response rating [10, 22]: 0 | Rape plant response rating [10, 23]: 0 | Rape plant response rating [10, 24]: 0 | Rape plant response rating [10, 25]: 0 | Rape plant response rating [10, 26]: 2 | Rape plant response rating [10, 27]: 0 | Plant response rating (0 to 10; 0 is no effect, 10 is complete control), Rape ([10]; Rate 250 g/ha, Postemergence): 3 | Soybean plant response rating [11, 21]: 0 | Soybean plant response rating [11, 22]: 0 | Soybean plant response rating [11, 23]: 0 | Soybean plant response rating [11, 25]: 1 | Soybean plant response rating [11, 26]: 1 | Soybean plant response rating [11, 27]: 0 | Plant response rating (0 to 10; 0 is no effect, 10 is complete control), Soybean ([11]; Rate 250 g/ha, Postemergence): 2 | Sugarbeets plant response rating [12, 21]: 0 | Sugarbeets plant response rating [12, 22]: 0 | Sugarbeets plant response rating [12, 23]: 0 | Sugarbeets plant response rating [12, 25]: 3 | Sugarbeets plant response rating [12, 26]: 3 | Sugarbeets plant response rating [12, 27]: 0 | Plant response rating (0 to 10; 0 is no effect, 10 is complete control), Sugarbeets ([12]; Rate 250 g/ha, Postemergence): 4 | Velvetleaf plant response rating [13, 21]: 0 | Velvetleaf plant response rating [13, 22]: 0 | Velvetleaf plant response rating [13, 23]: 0 | Velvetleaf plant response rating [13, 25]: 0 | Velvetleaf plant response rating [13, 26]: 0 | Velvetleaf plant response rating [13, 27]: 0 | Plant response rating (0 to 10; 0 is no effect, 10 is complete control), Velvetleaf ([13]; Rate 250 g/ha, Postemergence): 0 | Wheat plant response rating [14, 21]: 0 | Wheat plant response rating [14, 22]: 0 | Wheat plant response rating [14, 23]: 0 | Wheat plant response rating [14, 25]: 0 | Wheat plant response rating [14, 26]: 0 | Wheat plant response rating [14, 27]: 0 | Plant response rating (0 to 10; 0 is no effect, 10 is complete control), Wheat ([14]; Rate 250 g/ha, Postemergence): 2 | Wild oats plant response rating [15, 21]: 0 | Wild oats plant response rating [15, 22]: 0 | Wild oats plant response rating [15, 23]: 0 | Wild oats plant response rating [15, 25]: 0 | Wild oats plant response rating [15, 26]: 0 | Wild oats plant response rating [15, 27]: 0 | Plant response rating (0 to 10; 0 is no effect, 10 is complete control), Wild oats ([15]; Rate 250 g/ha, Postemergence): 2 | Nutsedge plant response rating [16, 22]: 0 | Nutsedge plant response rating [16, 24]: 0 | Nutsedge plant response rating [16, 25]: 0 | Nutsedge plant response rating [16, 26]: 0 | Nutsedge plant response rating [16, 27]: 0 | Plant response rating (0 to 10; 0 is no effect, 10 is complete control), Nutsedge ([16]; Rate 250 g/ha, Postemergence): 0 | Rice plant response rating [17, 28]: 0 | Rice plant response rating [17, 29]: 0 | S. Flatsedge plant response rating [18, 28]: 0 | S. Flatsedge plant response rating [18, 29]: 0 | Ducksalad plant response rating [19, 28]: 0 | Ducksalad plant response rating [19, 29]: 0 | Barnyardgrass plant response rating [20, 28]: 0 | Barnyardgrass plant response rating [20, 29]: 0
